Drawing on ChEMBL document CHEMBL2069247, “A highly sensitive fluorescent viscosity sensor” (Bioorg Med Chem Lett, 2012), this text covers Drug uptake for one compound.

Data set [1] deals with HeLa. The experiment in a line: Drug uptake in human HeLa cells at 5 uM after 2 hrs by fluorescence microscopic analysis. It is filed as ADME, cell-based.
The subject of data set [2] is HeLa. The experiment in a line: Drug uptake in human HeLa cells measured immediately. It is filed as ADME, cell-based.

With `Cn1ccc2ccc(-c3ccc4c(-c5ccccc5C(=O)O)c5ccc(=O)cc-5oc4c3)cc21`, the Drug uptake entry in data set [1] and in data set [2] was “Active” each time.
